Laboratory results as given in ChEMBL document CHEMBL3351673, “Synthesis and evaluation of new indole-based chalcones as potential antiinflammatory agents” (Eur J Med Chem, 2015).
In brackets after ≈: the same amount, converted by molar mass.

Experiments:
Rattus norvegicus [1] = test: Antiinflammatory activity in Sprague-Dawley rat model of LPS-induced sepsis assessed as serum MDA level at 5 mg/kg/day dosed through gastric intubation for 6 days (reference value: 4.7 +/- 2.8 mg/L); type: functional
Rattus norvegicus [2] = test: Antiinflammatory activity in Sprague-Dawley rat model of LPS-induced sepsis assessed as MPO level at 5 mg/kg/day dosed through gastric intubation for 6 days (reference value: 4.2 +/- 1.8 […]); type: functional
Rattus norvegicus [3] = test: Antiinflammatory activity in Sprague-Dawley rat model of LPS-induced sepsis assessed as ALT level at 5 mg/kg/day dosed through gastric intubation for 6 days (reference value: 70.3 +/- 7.9 U/L); type: functional
Rattus norvegicus [4] = test: Antiinflammatory activity in Sprague-Dawley rat model of LPS-induced sepsis assessed as nitric oxide level at 5 mg/kg/day dosed through gastric intubation for 6 days by cadmium reduction method (reference value: 28.6 +/- 2.4 umol/L); type: functional
[5] = target: T1, Prostaglandin G/H synthase 1 (Ovis aries, UniProt P05979); test: Inhibition of ovine COX1 using arachidonic acid substrate incubated for 5 mins by colorimetry
T1 sequence (P05979 whole entry): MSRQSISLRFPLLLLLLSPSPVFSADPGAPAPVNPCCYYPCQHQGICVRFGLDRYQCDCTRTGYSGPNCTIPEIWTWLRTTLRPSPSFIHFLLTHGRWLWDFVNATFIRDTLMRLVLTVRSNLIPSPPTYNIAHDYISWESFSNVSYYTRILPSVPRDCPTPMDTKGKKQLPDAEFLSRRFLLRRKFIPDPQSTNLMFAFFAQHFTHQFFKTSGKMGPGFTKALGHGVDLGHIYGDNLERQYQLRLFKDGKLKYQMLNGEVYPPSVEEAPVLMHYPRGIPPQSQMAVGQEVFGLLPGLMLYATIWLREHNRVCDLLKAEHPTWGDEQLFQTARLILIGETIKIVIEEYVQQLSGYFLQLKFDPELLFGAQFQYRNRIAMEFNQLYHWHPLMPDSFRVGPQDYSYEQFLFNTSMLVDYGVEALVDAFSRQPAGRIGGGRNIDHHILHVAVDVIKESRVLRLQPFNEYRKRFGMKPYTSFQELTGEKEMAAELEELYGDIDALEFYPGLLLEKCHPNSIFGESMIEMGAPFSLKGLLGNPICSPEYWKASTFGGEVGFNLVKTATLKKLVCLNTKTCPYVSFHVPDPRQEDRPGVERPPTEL

[6] = Cytotoxicity against mouse NIH/3T3 cells incubated for 24 hrs by CCK8 assay; type: cell-based; details: NIH3T3, 24 h
Rattus norvegicus [7] = test: Antiinflammatory activity in Sprague-Dawley rat model of LPS-induced sepsis assessed as hsCRP level at 5 mg/kg/day dosed through gastric intubation for 6 days (reference value: 1.9 +/- 0.3 mg/L); type: functional
Rattus norvegicus [8] = test: Antiinflammatory activity in Sprague-Dawley rat model of LPS-induced sepsis assessed as AST level at 5 mg/kg/day dosed through gastric intubation for 6 days (reference value: 148.9 +/- 41.3 U/L); type: functional

Row | Structure (SMILES) | IC50 [5] [µM] | Activity (Rattus norvegicus [1]) [nmol/mL] | Activity (Rattus norvegicus [2]) [U/L] | Activity (Rattus norvegicus [3]) [U/L] | Activity (Rattus norvegicus [4]) [µmol/L] | IC50 [6] [µg/mL] | Activity (Rattus norvegicus [7]) [mg/L] | Activity (Rattus norvegicus [8]) [U/L]
1 | COc1ccc2[nH]cc(/C=C/C(=O)c3ccc(C#N)cc3)c2c1 | > 33.1 |  |  |  |  | 20 (≈ 66.2 µM) |  | 
2 | CS(=O)(=O)c1ccc(C(=O)/C=C/c2c[nH]c3ccc(Cl)cc23)cc1 | > 27.8 |  |  |  |  | 21 (≈ 58.4 µM) |  | 
3 | N#Cc1ccc(C(=O)/C=C/c2c[nH]c3ccc(Cl)cc23)cc1 | > 32.6 |  |  |  |  | 33.3 (≈ 109 µM) |  | 
4 | CS(=O)(=O)c1ccc(C(=O)/C=C/c2c[nH]c3ccc(Br)cc23)cc1 | > 24.7 |  |  |  |  | 17.3 (≈ 42.8 µM) |  | 
5 | N#Cc1ccc(C(=O)/C=C/c2c[nH]c3ccc(Br)cc23)cc1 | 23.1 | 2.5 | 0.8 | 62.4 | 26.2 | 51.6 (≈ 147 µM) | 0.6 | 98.8
6 | COc1ccc2c(c1)c(CC(=O)O)c(C)n2C(=O)c1ccc(Cl)cc1 [INDOMETHACIN] |  | 2.7 | 0.6 | 67.6 | 26.2 |  | 1.1 | 92.5

Now from value to compound, other results behind:

Row | IC50 [5] [µM] | Structure (SMILES) | Activity (Rattus norvegicus [1]) [nmol/mL] | Activity (Rattus norvegicus [2]) [U/L] | Activity (Rattus norvegicus [3]) [U/L] | Activity (Rattus norvegicus [4]) [µmol/L] | IC50 [6] [µg/mL] | Activity (Rattus norvegicus [7]) [mg/L] | Activity (Rattus norvegicus [8]) [U/L]
7 | 24.2 | COc1ccc2[nH]cc(/C=C/C(=O)c3ccc(S(C)(=O)=O)cc3)c2c1 | 2.6 | 0.6 | 60.9 | 25.6 | 32.3 (≈ 90.9 µM) | 1 | 93.8
8 | > 29.5 | Cn1cc(/C=C/C(=O)c2ccc(S(C)(=O)=O)cc2)c2ccccc21 |  |  |  |  | 350 (≈ 1030 µM) |  | 
9 | 33.9 | Cn1cc(/C=C/C(=O)c2ccc(C#N)cc2)c2ccccc21 |  |  |  |  | 210 (≈ 733 µM) |  | 
10 | > 31.4 | CC(=O)Nc1ccc(C(=O)/C=C/c2cn(C)c3ccccc23)cc1 |  |  |  |  | 96.6 (≈ 303 µM) |  | 
